For orientation: IC50 means the concentration that inhibits the measured activity by half. A low value points to greater potency.

Experiment [1] has as its system CEM-SS. The experiment can be described thus: Compound was evaluated for the effect of Order of Addition on Cytoprotection against HIV-1RF at dilution 1000, Pretreat with 100 uM. The class given is functional, Homo sapiens.
In experiment [2] the test system is CEM-SS. Kind of experiment: Compound was evaluated for the effect of Order of Addition on Cytoprotection against HIV-1RF at dilution 100, Pretreat and add 1 uM. The class given is functional, Homo sapiens.
Experiment [3] has as its system CEM-SS. Kind of experiment: Compound was evaluated for the effect of Order of Addition on Cytoprotection at dilution 333, Add at infection. Type of experiment: functional, Homo sapiens.
Experiment [4] deals with CEM-SS. Kind of experiment: Compound was evaluated for the effect of Order of Addition on Cytoprotection against HIV-1RF at dilution 333, Pretreat and add 10 uM. The class given is functional, Homo sapiens.
Experiment [5] has as its system CEM-SS. The experiment can be described thus: Compound was evaluated for the effect of Order of Addition on Cytoprotection against HIV-1RF at dilution 100, Pretreat with 100 uM. Type of experiment: functional, Homo sapiens.
Experiment [6] deals with CEM-SS. The experiment can be described thus: Compound was evaluated for the effect of Order of Addition on Cytoprotection against HIV-1RF at dilution 333, Pretreat with 100 uM. Type of experiment: functional, Homo sapiens.
Experiment [7] concerns CEM-SS. Kind of experiment: Compound was evaluated for the effect of Order of Addition on Cytoprotection against HIV-1RF at dilution 100, Add at infection. Type of experiment: functional, Homo sapiens.
Experiment [8] relates to CEM-SS. Kind of experiment: Compound was evaluated for the effect of Order of Addition on Cytoprotection against HIV-1RF at dilution 333,Pretreat and add 1 uM. Type of experiment: functional, Homo sapiens.
The test system of experiment [9] is CEM-SS. The experiment can be described thus: Compound was evaluated for the effect of Order of Addition on Cytoprotection against HIV-1RF at dilution 100, Pretreat and add 10 uM. The class given is functional, Homo sapiens.
In experiment [10] the test system is CEM-SS. Kind of experiment: Compound was evaluated for the effect of Order of Addition on Cytoprotection against HIV-1RF at dilution 1000, Pretreat and add 1 uM. Type of experiment: functional, Homo sapiens.
For experiment [11], the system named is CEM-SS. Kind of experiment: Compound was evaluated for the effect of Order of Addition on Cytoprotection against HIV-1RF at dilution 1000, Add at infection. The class given is functional, Homo sapiens.
Experiment [12] concerns CEM-SS. The experiment can be described thus: Compound was evaluated for the effect of Order of Addition on Cytoprotection against HIV-1RF at dilution 1000, Pretreat and add 10 uM. Type of experiment: functional, Homo sapiens.
Experiment [13] has as its system CEM-SS. The experiment can be described thus: Compound was evaluated for the cytoprotection of CEM-SS cells by XTT cytoprotection assay through the NCI AIDS Screen. Conditions: Homo sapiens. Type of experiment: functional, cell-based.
Experiment [14] concerns CEM-SS. Kind of experiment: Compound was evaluated for the cytoprotection of CEM-SS cells by XTT cytoprotection assay through the NCI AIDS Screen; Not reached due to cytotoxicity. The class given is functional, cell-based, Homo sapiens.
The target of experiment [15] is T1, Human immunodeficiency virus type 1 integrase (Human immunodeficiency virus 1, UniProt Q7ZJM1).
T1 sequence (Q7ZJM1 whole entry): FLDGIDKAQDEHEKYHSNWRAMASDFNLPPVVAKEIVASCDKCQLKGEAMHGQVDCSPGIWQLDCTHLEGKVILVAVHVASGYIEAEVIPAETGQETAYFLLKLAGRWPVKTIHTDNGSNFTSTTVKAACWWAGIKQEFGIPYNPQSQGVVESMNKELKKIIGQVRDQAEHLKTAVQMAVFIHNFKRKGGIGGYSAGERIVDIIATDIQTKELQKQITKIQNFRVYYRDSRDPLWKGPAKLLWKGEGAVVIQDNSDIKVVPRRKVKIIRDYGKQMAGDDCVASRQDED
Description: Compound was evaluated for the inhibitory concentration against HIV-1 integrase by radiolabeled oligonucleotide-based assay 3''-processing
Experiment [16] has as its target T1, Human immunodeficiency virus type 1 integrase. This is another data set of the same source.
Description: Inhibition of HIV-1 integrase by radiolabeled oligonucleotide-based assay integration
In experiment [17] the test system is CEM-SS. The experiment can be described thus: Compound was evaluated for the cytoprotection fo CEM-SS cells by XTT cytoprotection assay through the NCI AIDS Screen. The conditions noted are these: Homo sapiens. The class given is functional, cell-based. On the technique in general: Formazan colour is commonly taken as a measure of viable cells.
Experiment [18] deals with CEM-SS. The experiment can be described thus: Compound was evaluated for the cytoprotection by XTT cytoprotection assay through the NCI AIDS Screen. The class given is functional, cell-based. The conditions noted are these: Homo sapiens.

As for `O=C(/C=C/c1ccc(O)c(O)c1)O[C@H](C(=O)O)[C@H](OC(=O)/C=C/c1ccc(O)c(O)c1)C(=O)O` [CHICORIC ACID], the Control worked out at 168% in the experiment on CEM-SS [1]; 56% in the experiment on CEM-SS [2]; 73% in the experiment with CEM-SS [3]; 82% with CEM-SS [4]; 108% in the experiment on CEM-SS [5]; 59% with CEM-SS [6]. In addition, the Control was 141% in the experiment with CEM-SS [7]; 92% in the experiment with CEM-SS [8]; 114% in the experiment with CEM-SS [9]; 50% in the experiment with CEM-SS [10]; 60% in the experiment with CEM-SS [11]; 135% in the experiment on CEM-SS [12].

For `C[C@H](OC(=O)/C=C/c1ccc(O)c(O)c1)[C@H](C)OC(=O)/C=C/c1ccc(O)c(O)c1`, the results for the IC50 (with CEM-SS [13]; in [15]; in [16]) were 3.64 µM, above 38.4 µM and 7.8 µM, respectively. Besides, in the experiment on CEM-SS [14], the EC50 entry was “Not reached”.

For the molecule `O=C(/C=C/c1ccc(O)c(O)c1)OCC(OC(=O)/C=C/c1ccc(O)c(O)c1)C(=O)O` (stereo not drawn), the IC50 in [15] was 4.2 µM; in [16], 1.7 µM.

For `O=C(/C=C/c1ccc(O)c(O)c1)O[C@H]1CCCC[C@@H]1OC(=O)/C=C/c1ccc(O)c(O)c1`, the results for the IC50 (in the experiment on CEM-SS [13]; in experiment [15]; in [16]) were 5.67 µM, above 24.8 µM and 7.6 µM, respectively. In addition, in the experiment with CEM-SS [14], the EC50 result is listed as “Not reached”.

Turning to `COC(=O)[C@@H](CNC(=O)/C=C/c1ccc(OC)c(OC)c1)NC(=O)/C=C/c1ccc(OC)c(OC)c1`, the IC50 in experiment [15] and in experiment [16] was above 1000 µM in each case.

As to `COC(=O)[C@@H](COC(=O)/C=C/c1ccc(OC(C)=O)c(OC(C)=O)c1)NC(=O)/C=C/c1ccc(OC(C)=O)c(OC(C)=O)c1`, the IC50 came out at 2.8 µM in experiment [15] and 3.2 µM in [16].

Consider `O=C(/C=C/c1ccc(O)c(O)c1)NCCOC(=O)/C=C/c1ccc(O)c(O)c1`, for which the IC50 with CEM-SS [13] was 9.22 µM; in experiment [15], above 27.5 µM; in experiment [16], 6.5 µM.

On to `O=C(/C=C/c1ccc(O)c(O)c1)NC(COC(=O)/C=C/c1ccc(O)c(O)c1)C(=O)O` (stereo not drawn), for which the figures for the IC50 in experiment [15] and in [16] were 3.3 µM and 1.7 µM, respectively.

For the molecule `O=C(/C=C/c1ccc(O)c(O)c1)OCCCOC(=O)/C=C/c1ccc(O)c(O)c1`, in the experiment with CEM-SS [14], the EC50 result is on record as “Not reached”. Besides, the IC50 was found to be 27.5 µM in experiment [15], 13.9 µM in the experiment with CEM-SS [17] and 7.5 µM in [16].

On to `COc1ccc(/C=C/C(=O)NC[C@@H](NC(=O)/C=C/c2ccc(OC)c(OC)c2)C(=O)O)cc1OC`, for which the IC50 in [15] and in experiment [16] was above 1000 µM in each case.

With `CC(=O)NC(COC(=O)/C=C/c1ccc(O)c(O)c1)C(=O)O` (stereo not drawn), the IC50 in experiment [15] was 333 µM; in experiment [16] it was 111 µM.

With `COC(=O)C(COC(=O)/C=C/c1ccc(OC(C)=O)c(OC(C)=O)c1)OC(=O)/C=C/c1ccc(OC(C)=O)c(OC(C)=O)c1` (stereo not drawn), the IC50 in [15] and in experiment [16] was 10.1 µM throughout.

Regarding `CC(=O)Oc1ccc(/C=C/C(=O)OCCOC(=O)/C=C/c2ccc(OC(C)=O)c(OC(C)=O)c2)cc1OC(C)=O`, the IC50 with CEM-SS [13] is 6.7 µM; in [15], above 100 µM; in experiment [16], above 100 µM.

Regarding `CC(=O)Oc1ccc(/C=C/C(=O)NCC(NC(=O)/C=C/c2ccc(OC(C)=O)c(OC(C)=O)c2)C(=O)O)cc1OC(C)=O` (stereo not drawn), the IC50 in experiment [15] and in [16] was 4.1 µM in each case.

As for `CC(=O)Oc1ccc(/C=C/C(=O)OCC(OC(=O)/C=C/c2ccc(OC(C)=O)c(OC(C)=O)c2)C(=O)O)cc1OC(C)=O` (stereo not drawn), the IC50 in experiment [15] amounted to 2.1 µM; in experiment [16], 2.8 µM.

With `CC(=O)Oc1ccc(/C=C/C(=O)O[C@H]2CCCC[C@@H]2OC(=O)/C=C/c2ccc(OC(C)=O)c(OC(C)=O)c2)cc1OC(C)=O`, the IC50 in the experiment on CEM-SS [13] is 5.76 µM; in experiment [15] it was above 333 µM; in [16], above 333 µM.

In the case of `O=C(/C=C/c1ccc(O)c(O)c1)OCCOC(=O)/C=C/c1ccc(O)c(O)c1`, the EC50 entry in the experiment with CEM-SS [14] is listed as “Not reached”. The IC50 was determined as 10 µM with CEM-SS [18], 0.4 µM in experiment [15] and 0.4 µM in [16].

Regarding `CC(=O)Oc1ccc(/C=C/C(=O)OCCCOC(=O)/C=C/c2ccc(OC(C)=O)c(OC(C)=O)c2)cc1OC(C)=O`, the concentration for half-maximal inhibition (IC50) in experiment [15] and in experiment [16] was above 333 µM throughout.

As to `COC(=O)[C@H](COC(=O)/C=C/c1ccc(OC(C)=O)c(OC(C)=O)c1)NC(=O)/C=C/c1ccc(OC(C)=O)c(OC(C)=O)c1`, the IC50 in experiment [15] was determined as 2.8 µM; in [16] it was 3.8 µM.

As for `COC(=O)C(COC(=O)/C=C/c1ccc(OC(C)=O)c(OC(C)=O)c1)NC(=O)/C=C/c1ccc(OC(C)=O)c(OC(C)=O)c1` (stereo not drawn), the IC50 in experiment [15] came out at 2.5 µM; in [16], 3.2 µM.

For `COC(=O)C(COC(=O)/C=C/c1ccc(OC(C)=O)c(OC(C)=O)c1)NC(C)=O` (stereo not drawn), the IC50 in experiment [15] and in experiment [16] was above 333 µM each time.

Take `CC(=O)Oc1ccc(/C=C/C(=O)O[C@@H](C)[C@H](C)OC(=O)/C=C/c2ccc(OC(C)=O)c(OC(C)=O)c2)cc1OC(C)=O`: the IC50 is 5.71 µM in the experiment on CEM-SS [13], above 333 µM in experiment [15] and above 333 µM in experiment [16].

`COC(=O)[C@@H](CNC(=O)/C=C/c1ccc(OC(C)=O)c(OC(C)=O)c1)NC(=O)/C=C/c1ccc(OC(C)=O)c(OC(C)=O)c1`: the figures for the 50% inhibitory concentration (IC50) in experiment [15] and in experiment [16] were 10.9 µM and 10 µM, respectively.

Source of the values: ChEMBL document CHEMBL1132706 (J Med Chem, 1999).
